Measured values: publication PMC6182140 (Nucleic Acids Research, 2018)
Where two headings read alike, the source gives them in different places. Values belong to the molecule of their own block, whether it stands above or below them.

Key:
pol η–PCNA holoenzyme [1] = assay: TLS time course of pol η on cisPt(GG) template; type: biochemical, human; conditions: cisPt(GG) template 10 nM, pol η 40 nM; p15 with equimolar PCNA (p15), 10-fold excess PCNA (PCNA), or pol η alone; pH 8, 37°C
Description: (§1) The 24-mer template oligonucleotide containing the cis-PtGG adduct was a kind gift from S.J. Sturla (ETH, Zürich) and was prepared and purified as described previously (Nilforoushan, 2015). All other DNA oligonucleotides, all HPLC purified, were synthesized by Biomers.net (Germany). The 18mer primer oligonucleotide was 5′-labeled with carboxyfluorescin (FAM) group. The labeled primer was mixed to the complementary template oligonucleotide at 1:1 (M/M) ratio in the presence of 150 mM Hepes–KOH pH 7.4, 500 mM KCl, 10 mM MgCl2, 250 mM NH4Ac, heated at 95°C for 5 min and then slowly cooled at room temperature.
pJM879 ([33]), expressing N-terminal His-tagged human pol η, was a kind gift from R. Woodgate (NIH, USA). Human recombinant pol η was expressed and purified with a modified protocol: BL21 DE3 competent E. coli cells were transformed with pJM879. Plates containing […] kanamycin were used to identify kanamycin-resistant colonies that were picked and grown overnight at 37°C. […] Transformed E. coli cells were used to inoculate a 50 ml starter culture. After overnight growth at 37°C, 12 ml of the starter culture were put into 1 l of LB medium (containing […] kanamycin). After 6 h growth at 37°C, cells were harvested by centrifugation and pellet frozen at –80°C. […]

pol η–PCNA holoenzyme [2] = assay: DNA synthesis by pol η on undamaged template; type: biochemical, human
Description: as §1
pJM879 ([33]), expressing N-terminal His-tagged human pol η, was a kind gift from R. Woodgate (NIH, USA). Human recombinant pol η was expressed and purified with a modified protocol: BL21 DE3 competent E. coli cells were transformed with pJM879. Plates containing […] kanamycin were used to identify kanamycin-resistant colonies that were picked and grown overnight at 37°C. […] Transformed E. coli cells were used to inoculate a 50 ml starter culture. After overnight growth at 37°C, 12 ml of the starter culture were put into 1 l of LB medium (containing […] kanamycin). After 6 h growth at 37°C, cells were harvested by centrifugation and pellet frozen at –80°C. The pellet was resuspended in 40ml of lysis buffer (50mM Tris–HCl pH 7.5, 0.3 M NaCl, 20 mM imidazole, 10% glycerol, 10 mM b-mercaptoethanol [BME], 1× lysozime (Eurobio, Courtaboeuf, France), 1× ethylenediaminetetraacetic acid [EDTA]-free protease inhibitor ([…]™ Protease Inhibitor Cocktail Tablets, Sigma-Aldrich), 1 mM phenylmethane sulfonyl fluoride [PMSF] and lysed through sonication. After ultracentrifugation at 98 000g at 4°C for 1.5 h, the supernatant was loaded onto a 1-ml Ni-NTA column (HisTrap™ HP, GE Healthcare). Column washing was performed with 3 ml of W1 buffer ([…] pH 7.5, 1 M NaCl, 20 mM imidazole, 10% glycerol, 10 mM BME) followed by 3 ml of W2 buffer (10 mM Na-phosphate pH 7.7, 0.3 M NaCl, 20 mM imidazole, 10% glycerol, 10 mM BME). Elution of target protein was obtained using buffer H (10 mM Na-phosphate pH 7.7, 0.3 M NaCl, 200 mM imidazole, 10% glycerol, 10 mM BME). The pol η positive fractions (0.5 ml each) were pooled and overnight dialyzed with buffer M (20 mM Na-phosphate pH 7.3, 0.1 M NaCl, 10% glycerol, 10 mM BME), in dialysis cassette (Slide-A-Lyzer™ Dialysis Cassettes, 3.5K MWCO, Thermo Scientific). Pool was then loaded onto a 1-ml cation exchanger column (HiTrap SP, Pharmacia Biotech). Buffer N (20 mM Na-phosphate pH 7.3, 0.5 M NaCl, 10% glycerol, 10 mM BME) was used to elute pol η with a linear gradient. The pol ηpositive fractions (0.5 ml each) were aliquoted and stored at –80°C in 20% final glycerol.
(§2) All reactions were performed in a 10 μl final volume using the following conditions: 40 mM Tris pH 8, 1 mM dithiotreitol (DTT), 0.25 mg/ml bovine serum albumin (BSA), 10 mM Mg^2+ (unless otherwise stated in the figures or figure legends). Reactions were incubated at 37°C for 15 min, unless otherwise stated. Reaction mixtures were stopped by addition of standard denaturing gel loading buffer (95% formamide, […], xylene cyanol and bromophenol blue), heated at 95°C for 5 min and loaded on a 7-M urea 12% polyacrylamide (PA) gel.
Figure 4. […] Reactants at the indicated concentrations were incubated at 37°C for 30 s and the reaction was stopped by addition of standard denaturing gel loading buffer.

pol η–PCNA holoenzyme [3] = assay: TLS by pol η on cis-Pt template in the presence of RF-C; type: biochemical, human; conditions: 50 µM dNTPs, 0.5 mM ATP, 150 nM ScRF-C, 400 nM pol η, 400 nM p15, 50 nM PCNA
Description: Recombinant ScRF-C was obtained as a kind gift from the laboratory of Alessandro Costa (Francis Crick Institute), and was prepared following the procedure described in ([34]).
as §2
18/24mer primer-template substrate bearing a cis-Pt adduct at the two guanines at positions +1
and +2 of the template strand, in the presence of RF-C and in the absence (lanes 10-13) or in the
Reactant concentrations were: 50
(1 picture or pasted object on this page, not shown here)

pol η = assay: DNA synthesis by pol η without PCNA, undamaged control template; type: biochemical, human; conditions: pol η 70 nM, p15 400 nM, no PCNA, control template 10 nM
Description: pJM879 ([33]), expressing N-terminal His-tagged human pol η, was a kind gift from R. Woodgate (NIH, USA). Human recombinant pol η was expressed and purified with a modified protocol: BL21 DE3 competent E. coli cells were transformed with pJM879. Plates containing […] kanamycin were used to identify kanamycin-resistant colonies that were picked and grown overnight at 37°C. DNA purified from bacterial cultures using NucleoSpin® Plasmid (NoLid) kit ([…]-NAGEL, Düren, Germany) was digested to confirm the presence of the gene expressing pol η. Transformed E. coli cells were used to inoculate a 50 ml starter culture. After overnight growth at 37°C, 12 ml of the starter culture were put into 1 l of LB medium (containing […] kanamycin). After 6 h growth at 37°C, cells were harvested by centrifugation and pellet frozen at –80°C. […]

DNA = conditions: cited from earlier work
Description: (§3) Thus, each dNTP insertion step is carried out by a combination of pol η alone and pol η holoenzyme. However, if ...

PCNA (Homo sapiens) [4] = target: PCNA (Homo sapiens) (UniProt P12004); assay: ITC; conditions: cited from earlier work
PCNA (Homo sapiens) [5] = target: PCNA (Homo sapiens) (UniProt P12004); assay: SPR; conditions: cited from earlier work
PCNA = conditions: read-out: Kd pol η–PCNA (SPR); surface plasmon resonance at 25°C; cited from earlier work
Description: as §3

UniProt P12004, sequence (P12004 whole entry): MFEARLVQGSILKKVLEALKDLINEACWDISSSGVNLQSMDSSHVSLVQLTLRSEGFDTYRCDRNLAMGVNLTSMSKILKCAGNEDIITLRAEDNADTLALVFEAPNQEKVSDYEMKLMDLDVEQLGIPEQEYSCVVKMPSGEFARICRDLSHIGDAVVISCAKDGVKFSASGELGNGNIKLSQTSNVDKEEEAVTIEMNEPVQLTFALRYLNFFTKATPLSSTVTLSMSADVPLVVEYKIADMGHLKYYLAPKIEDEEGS

Molecule: p15: PCNA–associated factor, oncogenic 11 kDa intrinsically disordered protein
- effect on lesion bypass / nucleotide incorporation (pol η–PCNA holoenzyme [1]): reduced nucleotide incorporation at +2 and +3 positions
- effect on nucleotide incorporation at initial time point (pol η–PCNA holoenzyme [2]; undamaged template 10 nM, with PCNA and p15 equimolar, lane 2, 37°C, pH 8): reduced nucleotide incorporation at position +2
- effect on synthesis of full-length product (pol η–PCNA holoenzyme [2]; undamaged template 10 nM, with PCNA and p15 equimolar, lanes 3–5, 37°C, pH 8): slowed down the synthesis of the full-length product
- comparison of pol η inhibition by p15 and p15^41–72 in conjunction with PCNA (pol η–PCNA holoenzyme [2]; undamaged template, 37°C for 30 s): able to reduce pol η synthesis at comparable levels
- effect on DNA synthesis in combination with PCNA (pol η–PCNA holoenzyme [2]; undamaged template, 37°C for 30 s, with respect to pol η and PCNA alone, synthesis stopped at +1 and +2): reduction of DNA synthesis
- effect on TLS in the presence of RF-C (pol η–PCNA holoenzyme [3]; 40 nM cis-Pt 18/24mer): delays TLS by pol η–PCNA across a cis-Pt lesion even in the presence of RF-C
- accumulated products in the presence of RF-C (pol η–PCNA holoenzyme [3]; p15 in combination with PCNA): accumulation of +1 and +2 products
- effect of p15 alone on pol η activity (pol η): does not affect the activity of the polymerase
- Kd (DNA; read-out: affinity of p15 for DNA): 5000 nM

Molecule: p15PAF (from UniProt Q15004)
- Kd (PCNA (Homo sapiens) [4]): 1100 nM

Molecule: pol η (from UniProt Q9Y253)
- Kd (PCNA (Homo sapiens) [5]): 400 nM

- effect on lesion bypass / nucleotide incorporation (pol η–PCNA holoenzyme [1]): able to complete the bypass
B1: pol η: human recombinant translesion synthesis polymerase η, N-terminal His-tagged (protein, UniProt Q9Y253 1-713, looked up)
DNA polymerase eta: MATGQDRVVALVDMDCFFVQVEQRQNPHLRNKPCAVVQYKSWKGGGIIAVSYEARAFGVTRSMWADDAKKLCPDLLLAQVRESRGKANLTKYREASVEVMEIMSRFAVIERASIDEAYVDLTSAVQERLQKLQGQPISADLLPSTYIEGLPQGPTTAEETVQKEGMRKQGLFQWLDSLQIDNLTSPDLQLTVGAVIVEEMRAAIERETGFQCSAGISHNKVLAKLACGLNKPNRQTLVSHGSVPQLFSQMPIRKIRSLGGKLGASVIEILGIEYMGELTQFTESQLQSHFGEKNGSWLYAMCRGIEHDPVKPRQLPKTIGCSKNFPGKTALATREQVQWWLLQLAQELEERLTKDRNDNDRVATQLVVSIRVQGDKRLSSLRRCCALTRYDAHKMSHDAFTVIKNCNTSGIQTEWSPPLTMLFLCATKFSASAPSSSTDITSFLSSDPSSLPKVPVTSSEAKTQGSGPAVTATKKATTSLESFFQKAAERQKVKEASLSSLTAPTQAPMSNSPSKPSLPFQTSQSTGTEPFFKQKSLLLKQKQLNNSSVSSPQQNPWSNCKALPNSLPTEYPGCVPVCEGVSKLEESSKATPAEMDLAHNSQSMHASSASKSVLEVTQKATPNPSLLAAEDQVPCEKCGSLVPVWDMPEHMDYHFALELQKSFLQPHSSNPQVVSAVSHQGKRNPKSPLACTNKRPRPEGMQTLESFFKPLTH
modifications: N-terminal His tag
notes: human recombinant translesion synthesis polymerase η, N-terminal His-tagged
- processivity (pol η–PCNA holoenzyme [2]; undamaged template 10 nM, pol η alone or with PCNA, 37°C, pH 8): equal processivity
- Kd (DNA; read-out: affinity of pol η for DNA): 30 nM
- Kd (PCNA): 400 nM
